Type in all cases: cell-based
The target of test [1] is T1, LAT1 (System L1 catalytic subunit) (Mus musculus, UniProt Q9Z127).
T1 construct: gene Slc7a5; endogenous System L1 in 3T3-L1 adipocytes; with SLC3A2 (4F2hc/CD98)
As to the kind of experiment: inhibition of […] [3H]phenylalanine uptake at […]. Particulars: read-out: % inhibition at 10 mM.

The target of test [2] is T1, LAT1 (System L1 catalytic subunit). As to the kind of experiment: saturable [3H]phenylalanine uptake (Km) in 3T3-L1 cells.
For test [3] the target is unchanged. As to the kind of experiment: trans stimulation of [3H]phenylalanine efflux; inhibition of phenylalanine and T3 uptake.
The target is the same in test [4]. As to the kind of experiment: inhibition of [3H]phenylalanine uptake ([…] at […]) and of leucine trans stimulated efflux. To be noted: read-out: % inhibition at 10 μM.

A value given as a limit tells only on which side of the number the result lay.

Usually inhibition stands for the share of the control response that was lost under treatment. Usually Km stands for the substrate concentration at which the rate is half of its maximum.

T1 sequence (Q9Z127 whole entry): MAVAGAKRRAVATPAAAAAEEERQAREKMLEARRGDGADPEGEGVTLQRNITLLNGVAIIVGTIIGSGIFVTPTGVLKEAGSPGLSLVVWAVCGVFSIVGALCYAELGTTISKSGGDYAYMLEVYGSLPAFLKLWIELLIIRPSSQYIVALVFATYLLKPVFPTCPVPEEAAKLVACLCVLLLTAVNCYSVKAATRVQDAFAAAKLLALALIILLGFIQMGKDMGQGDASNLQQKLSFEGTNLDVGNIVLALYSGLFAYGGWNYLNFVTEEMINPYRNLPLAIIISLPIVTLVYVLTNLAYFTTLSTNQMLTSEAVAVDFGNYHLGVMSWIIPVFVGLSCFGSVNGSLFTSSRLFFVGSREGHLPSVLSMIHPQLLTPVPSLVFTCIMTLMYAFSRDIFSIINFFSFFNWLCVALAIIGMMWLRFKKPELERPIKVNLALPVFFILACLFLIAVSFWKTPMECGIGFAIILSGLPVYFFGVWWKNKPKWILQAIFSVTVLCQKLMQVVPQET
T1 sequence (P10852 whole entry partner): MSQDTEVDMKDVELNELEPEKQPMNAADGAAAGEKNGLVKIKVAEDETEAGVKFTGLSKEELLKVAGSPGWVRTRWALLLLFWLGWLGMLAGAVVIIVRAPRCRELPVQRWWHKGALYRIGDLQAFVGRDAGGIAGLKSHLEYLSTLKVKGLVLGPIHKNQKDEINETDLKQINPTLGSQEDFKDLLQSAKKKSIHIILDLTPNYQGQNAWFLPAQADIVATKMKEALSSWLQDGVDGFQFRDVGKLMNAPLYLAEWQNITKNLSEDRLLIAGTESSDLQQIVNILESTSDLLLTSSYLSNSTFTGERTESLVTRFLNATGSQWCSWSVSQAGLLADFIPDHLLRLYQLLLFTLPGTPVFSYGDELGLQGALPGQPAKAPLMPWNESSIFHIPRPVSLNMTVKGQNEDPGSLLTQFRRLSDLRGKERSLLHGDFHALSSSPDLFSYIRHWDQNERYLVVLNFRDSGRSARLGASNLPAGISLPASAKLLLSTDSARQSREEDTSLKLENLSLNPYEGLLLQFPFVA

As for `NC1(C(=O)O)CC2CCC1C2` (stereo not shown) [BCH, 2-aminobicyclo-(2,2,1)-heptane-2-carboxylic acid], the inhibition at 10000 µM in test [1] is above 95%. For the compound `N[C@@H](Cc1ccccc1)C(=O)O` [L-phenylalanine], the Michaelis constant (Km) in test [2] was determined as 31 µM.

With `CC(C)C[C@H](N)C(=O)O` [leucine], the “trans stimulation of [3H]phenylalanine efflux; inhibition of phenylalanine and T” value in test [3] was “Efflux of pre-loaded L-[^3H]phenylalanine from 3T3-L1 adipocytes was trans stimulated in a concentration-dependent manner by external leucine”. In the case of `N[C@@H](Cc1ccc(Oc2cc(I)c(O)c(I)c2)c(I)c1)C(=O)O` [rT3, Reverse L-triiodothyronine], the inhibition at 10 µM in test [4] came to 57%.

Values taken from article PMC2957699, “Iodothyronine Interactions with the System L1 Amino Acid Exchanger in 3T3-L1 Adipocytes” (Journal of Thyroid Research, 2010).
